The test deals with T1, RGS4 (Homo sapiens, UniProt P49798).
T1 construct: expressed in transfected cells; host or cells: HEK-293T, transient transfection
Nature of the test: Cellular thermal shift assay (CETSA), RGS4-HA. It is filed as binding. As to conditions: 100 μM overnight (16–18 hours); gradient 40–60 °C; vs DMSO. Here is the method:
The cells in 100 mm dishes were harvested by trypsination in reduced serum media and transferred to 15 mL conical tubes. The cells were centrifuged at 300 × g for 3 minutes. Media was removed, and the cell pellet was washed with 10 mL of PBS. The cells were then resuspended in 500 μL of PBS and aliquoted into polymerase chain reaction (PCR) tubes. The cells were then heated in a PCR gradient (40–60 °C) for 3 minutes and then transferred to a 25 °C PCR block for 3 minutes. Following this, cells were immediately flash-frozen using liquid nitrogen. The cells were freeze-thawed 3 times to lyse the cells and then spun down at 20,000 × g for 20 minutes. The supernatant was then added to sample buffer and heated for 5 minutes at 95 °C before SDS-PAGE and western blot analysis.
We next assessed whether the action of compound 10 to inhibit the RGS2-FBXO44 interaction is through direct binding to either protein. […] The cells were lysed and analyzed by western blot to determine melting temperatures (Tm). […] We also assessed the effect of compound 10 on the Tm for RGS4, which is closely related to RGS2 and also subject to proteasomal degradation, however, independent of FBXO44 ([Lee et al, 2005]; [Sjögren et al, 2015]).

Consider one molecule from PMC13095444, “Discovery of RGS2-FBXO44 interaction inhibitors using a cell-based NanoBit assay” (Molecular Pharmacology, 2025).

T1 sequence (P49798 whole entry, species assumed): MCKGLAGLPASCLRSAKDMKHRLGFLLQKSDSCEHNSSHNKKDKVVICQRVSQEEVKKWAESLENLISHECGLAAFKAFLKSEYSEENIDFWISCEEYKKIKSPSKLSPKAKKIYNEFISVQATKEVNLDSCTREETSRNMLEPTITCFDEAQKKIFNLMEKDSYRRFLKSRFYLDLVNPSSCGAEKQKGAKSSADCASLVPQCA

In the case of `CCC1CCCCN1S(=O)(=O)c1cc(Br)ccc1OC` (stereo not shown) [Compound 10], the “Effect on the Tm for RGS4” value was “no significant effect”.
